In paper PMC7669867, “Synthesis and initial screening of lactate dehydrogenase inhibitor activity of 1,3-benzodioxole derivatives” (Scientific Reports, 2020):
Where “and” joins values, the source holds several entries; their conditions need not be identical. Equal values may be shown once. Read-outs that look alike come from different tables or passages of the source.

What was measured:
LDHA = conditions: cited from earlier work; for LDHA inhibitory activity: at concentrations up to 1 mM
[1] = target: T1, purified recombinant human LDHB protein (Homo sapiens, UniProt P07195); experiment: In vitro LDHB activity assay (NAD+ converted to NADH); format: biochemical
T1 construct: purchased Abcam
T1 sequence (P07195 whole entry): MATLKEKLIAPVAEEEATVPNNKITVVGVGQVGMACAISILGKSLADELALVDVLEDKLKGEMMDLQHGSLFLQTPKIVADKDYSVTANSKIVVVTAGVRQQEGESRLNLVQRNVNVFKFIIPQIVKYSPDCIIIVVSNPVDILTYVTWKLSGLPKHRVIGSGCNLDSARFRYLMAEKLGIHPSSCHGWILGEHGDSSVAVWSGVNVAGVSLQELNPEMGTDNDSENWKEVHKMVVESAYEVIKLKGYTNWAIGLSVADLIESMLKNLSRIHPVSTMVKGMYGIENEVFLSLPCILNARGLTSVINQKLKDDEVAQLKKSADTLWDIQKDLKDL
Experimental: (§1) The in vitro evaluation of the LDHA inhibitor activities of the synthesized compounds was determined by the NADH intensity decrease through oxidation in a solution of HEPES-K^+, NADH, and pyruvate at a pH = 7.2. The NADH oxidation fluorescence intensity was measured using a spectrofluorometer at 340 nm excitation and 460 nm emission wavelengths, representing the NADH-specific fluorescence spectrum. Furthermore, the in vitro evaluation of the LDHB inhibitor activity was determined as a reverse reaction, which converts lactate to pyruvate by determining the amount of NAD^+ converted to NADH using the above-mentioned spectrophotometric experimental setting (Table 2). Based on this analysis, the half-maximal inhibitory concentration (IC50) of the synthesized compounds was obtained.
In vitro analysis was determined the amount of NAD^+ converted to NADH[33]. The assay mixture composed of 100 mM Tris–HCl buffer (pH 8.0), 200 mM sodium L-lactate, 2.5 mM NAD^+, and 100 ng of purified recombinant human LDHB protein (Abcam). The fluorescence intensity of NADH was measured using a spectrofluorometer (Spectramax M2) at 340 nm as excitation wavelength and 460 nm as emission wavelength which is the specific fluorescence of NADH.

[2] = system: human pancreatic cancer PANC-1 cells; experiment: Cell viability MTT assay, PANC-1; format: cell-based; conditions: read-out: PANC-1 (GI50)
Experimental: (§2) The human pancreatic cancer cell lines, PANC-1 and MiaPaCa-2, human lung cancer A549 cells, human breast cancer MCF-7, and human glioma U87 cells were obtained from the Korean cell line bank (Seoul, Korea). The cells were cultured in Dulbecco’s Modified Eagle Medium (DMEM; ThermoFisher Scientific, Waltham, MA) supplemented with 10% fetal bovine serum (FBS; Sigma-Aldrich) and 1% penicillin/streptomycin (ThermoFisher Scientific). The cells were cultured at 37 °C in an atmosphere containing 5% CO2.
(§3) The potential cytotoxicity of compounds at different concentrations was evaluated using the MTT assay. Briefly, cancer cell lines were pre-incubated in 96-well plates with compounds for 48 h. Subsequently, MTT working solution (2 mg/mL in phosphate buffer solution) was added to each well and the plate was incubated for 4 h at 37 °C in an atmosphere containing 5% CO2. Then, the conditioned media were aspirated, and the formed formazan crystals in living cells were quantified using the microplate reader (Spectramax M2) at 540 nm. The concentrations that produce 50% cell growth inhibition (GI50) were calculated by curves constructed by the plot of cell survival by an assistant of PRISM software (GraphPad, San Diego, CA).

[3] = system: human pancreatic cancer MiaPaCa-2 cells; experiment: Cell viability MTT assay, MiaPaCa-2; format: cell-based; conditions: read-out: MiaPaCa-2 (GI50)
Experimental: as §2, §3

human glioma U87 cells = experiment: Cell viability MTT assay, U87; format: cell-based; conditions: U-87 MG, 48 h, read-out: U87 (GI50)
Experimental: as §2, §3

[4] = target: T2, purified recombinant human LDHA protein (Homo sapiens, UniProt P00338); experiment: In vitro LDHA inhibitor activity (NADH fluorescence decrease); format: biochemical; conditions: for LDHB/LDHA: ratio of LDHB IC50 to LDHA IC50 (selectivity)
T2 construct: purchased Abcam
Experimental: as §1
In vitro evaluation on LDHA inhibitor activity. LDHA activity assay was performed in accordance with previous studies[16],[18]. Briefly, the various concentrations of compounds were incubated with reaction buffer containing 20 mM HEPES-K^+, 20 μM NADH, 2 mM pyruvate, and 100 ng of purified recombinant human LDHA protein (Abcam, Cambridge, UK). The fluorescence of NADH, which has an excitation wavelength of 340 nm and an emission wavelength of 460 nm, was detected using a microplate spectrofluorometer (Spectramax M2; Molecular Devices, Sunnyvale, CA).

[5] = system: human breast cancer MCF-7; experiment: Cell viability MTT assay, MCF-7; format: cell-based; conditions: read-out: MCF-7 (GI50)
Experimental: as §2, §3

[6] = system: human lung cancer A549 cells; experiment: Cell viability MTT assay, A549; format: cell-based; conditions: read-out: A549 (GI50)
Experimental: as §2, §3

in vitro [7] = format: in vitro ADME, human; conditions: human, plasma
Experimental: (§4) Human and rat plasma (Sigma-Aldrich) are incubated at 37 °C with test compounds. During the incubation, aliquots are withdrawn at 0, 30, 120 min time points and acetonitrile solution (containing chlorpropamide) is added. After vortexing, the aliquots are centrifuged and the supernatant is withdrawn for analysis by LC–MS/MS.

in vitro [8] = format: in vitro ADME, rat; conditions: rat, plasma
Experimental: as §4

CYP2C19 = target: T3, CYP2C19 (Homo sapiens, UniProt P33261); experiment: CYP isozymes activity assay, CYP2C19; format: in vitro ADME; conditions: pooled human liver microsomes, S-mephenytoin; ketoconazole at 0.1 µM
T3 construct: Pooled Human liver microsomes (Sigma-Aldrich; 0.25 mg/mL); tissue Sigma-Aldrich; host or cells: pooled human liver microsomes
T3 sequence (P33261 whole entry): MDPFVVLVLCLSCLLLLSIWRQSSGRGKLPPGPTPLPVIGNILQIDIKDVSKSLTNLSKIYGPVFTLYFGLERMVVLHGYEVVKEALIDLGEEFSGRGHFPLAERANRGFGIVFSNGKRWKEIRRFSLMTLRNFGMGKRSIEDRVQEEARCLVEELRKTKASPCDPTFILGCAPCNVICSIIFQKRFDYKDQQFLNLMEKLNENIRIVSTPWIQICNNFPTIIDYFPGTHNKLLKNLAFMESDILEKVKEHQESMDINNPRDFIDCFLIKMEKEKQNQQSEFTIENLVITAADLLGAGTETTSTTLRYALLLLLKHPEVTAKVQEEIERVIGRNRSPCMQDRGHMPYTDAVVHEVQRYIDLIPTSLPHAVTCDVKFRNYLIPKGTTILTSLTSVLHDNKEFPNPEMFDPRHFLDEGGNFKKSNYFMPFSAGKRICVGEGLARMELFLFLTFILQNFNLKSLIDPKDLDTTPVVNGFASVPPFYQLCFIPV
Experimental: (§5) Pooled Human liver microsomes (Sigma-Aldrich; 0.25 mg/mL), 0.1 M phosphate buffer solution (pH 7.4), the five most commonly used substrate cocktails, such as 50 µM phenacetin (CYP1A2), 10 µM diclofenac […], 100 µM S-mephenytoin (CYP2C19) 5 µM dextromethorphan (CYP2D6), and 2.5 µM midazolam (CYP3A4), and compound 10 are pre-incubated at 37 °C for 5 min, then incubated with NADPH generation system solution for 15 min. To finish the enzymatic reaction, an acetonitrile solution (containing terfenadine) is added. The reaction tubes are centrifuged and the supernatant is withdrawn for analysis by LC–MS/MS.

CYP1A2 = target: T4, CYP1A2 (Homo sapiens, UniProt P05177); experiment: CYP isozymes activity assay, CYP1A2; format: in vitro ADME; conditions: pooled human liver microsomes, phenacetin; ketoconazole at 0.1 µM
T4 construct: Pooled Human liver microsomes (Sigma-Aldrich; 0.25 mg/mL); tissue Sigma-Aldrich; host or cells: pooled human liver microsomes
T4 sequence (P05177 1-516): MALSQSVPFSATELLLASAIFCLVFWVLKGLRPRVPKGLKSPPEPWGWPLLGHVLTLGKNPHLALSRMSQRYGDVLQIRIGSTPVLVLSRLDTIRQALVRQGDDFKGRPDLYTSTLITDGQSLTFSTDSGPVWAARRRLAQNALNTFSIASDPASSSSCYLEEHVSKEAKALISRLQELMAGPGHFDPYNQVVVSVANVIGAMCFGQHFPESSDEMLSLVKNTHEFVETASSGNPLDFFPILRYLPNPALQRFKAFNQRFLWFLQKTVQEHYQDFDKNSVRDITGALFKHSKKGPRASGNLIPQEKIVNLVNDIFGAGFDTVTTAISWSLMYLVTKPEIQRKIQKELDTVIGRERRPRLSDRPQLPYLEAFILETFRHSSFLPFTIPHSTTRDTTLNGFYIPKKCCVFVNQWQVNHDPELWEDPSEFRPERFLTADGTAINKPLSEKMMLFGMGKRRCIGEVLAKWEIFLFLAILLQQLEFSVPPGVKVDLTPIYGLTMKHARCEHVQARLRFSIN
Experimental: as §5

CYP2C9 = target: T5, CYP2C9 (Homo sapiens, UniProt P11712); experiment: CYP isozymes activity assay, CYP2C9; format: in vitro ADME; conditions: pooled human liver microsomes, diclofenac; ketoconazole at 0.1 µM
T5 construct: Pooled Human liver microsomes (Sigma-Aldrich; 0.25 mg/mL); tissue Sigma-Aldrich; host or cells: pooled human liver microsomes
T5 sequence (P11712 whole entry): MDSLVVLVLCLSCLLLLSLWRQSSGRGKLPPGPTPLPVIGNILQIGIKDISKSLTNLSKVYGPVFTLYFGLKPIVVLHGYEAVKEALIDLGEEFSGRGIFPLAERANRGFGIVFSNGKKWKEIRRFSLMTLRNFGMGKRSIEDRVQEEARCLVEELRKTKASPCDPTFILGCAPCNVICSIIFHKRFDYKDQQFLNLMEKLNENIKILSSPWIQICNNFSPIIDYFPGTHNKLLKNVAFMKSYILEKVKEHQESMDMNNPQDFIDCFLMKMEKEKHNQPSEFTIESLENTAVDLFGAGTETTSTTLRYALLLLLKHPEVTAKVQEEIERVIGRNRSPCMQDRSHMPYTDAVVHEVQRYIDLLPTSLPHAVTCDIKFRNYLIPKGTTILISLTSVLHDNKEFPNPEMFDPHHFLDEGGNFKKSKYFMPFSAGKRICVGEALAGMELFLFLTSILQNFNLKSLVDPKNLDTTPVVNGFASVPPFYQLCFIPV
Experimental: as §5

[9] = synthesized compounds, read-out: LDHB IC50
[10] = Homo sapiens, PANC-1, MTT, 48 h
[11] = synthesized compounds, read-out: LDHA IC50

Compound	IC50 [1, 9] [µM]	GI50 [2, 10] [µM]	GI50 ([3]; MIA PaCa-2, MTT, 48 h) [mM]	GI50 (human glioma U87 cells; MTT) [mM]	IC50 [4, 11] [µM]	GI50 ([5]; MCF7, MTT, 48 h) [mM]	GI50 ([6]; A549, MTT, 48 h) [mM]	further results
c1ccc2c(c1)OCO2 [1,3-benzodioxole]								LDHA inhibitory activity (LDHA): did not exhibit an LDHA inhibitory activity
O=C(OCc1ccc2c(c1)OCO2)c1ccc(Br)cc1 [Compound 1]	79	> 1000	> 1	> 1	> 1000	> 1	> 1	
O=C(OCc1ccc2c(c1)OCO2)c1ccc(I)cc1 [Compound 3]	151	269	> 1	> 1	> 1000	> 1	> 1	
Nc1cccc(C(=O)OCc2ccc3c(c2)OCO3)c1 [Compound 4]	7.87	203	> 1	0.38	182	0.729	> 1	LDHB/LDHA [4]: 0.043
O=C(OCc1ccc2c(c1)OCO2)c1ccc(F)cc1 [Compound 5]	> 1000	644	> 1	> 1	478	> 1	> 1	
O=C(CC(F)(F)F)OCc1ccc2c(c1)OCO2 [Compound 6]	130	> 1000	> 1	> 1	452	> 1	> 1	LDHB/LDHA [4]: 0.29
O=C(OCc1ccc2c(c1)OCO2)c1ccccc1 [Compound 7]	> 1000	243	> 1	> 1	843	> 1	> 1	LDHB/LDHA [4]: > 1.18
Cc1ccc(C(=O)OCc2ccc3c(c2)OCO3)cc1 [Compound 8]	248	86.5	> 1	> 1	> 1000	> 1	> 1	
O=C(OCc1ccc2c(c1)OCO2)c1ccc([Se]c2ccccc2)cc1 [Compound 9]								IC50 ([1]; LDHB IC50, synthesized compounds): 1000 µM and 151 µM; GI50 ([2]; Homo sapiens, PANC-1, 48 h): 21.1 µM; GI50 ([3]; MIA PaCa-2, 48 h): 0.108 mM; GI50 (human glioma U87 cells): > 1 mM; IC50 [4]: > 1000 µM; GI50 ([5]; MCF7, 48 h): 0.455 mM; GI50 ([6]; A549, 48 h): 0.925 mM
CCOC(=O)[C@H](CCc1ccccc1)N[C@@H](C)C(=O)N1CCC[C@H]1C(=O)O [Enalapril]								remaining at 0.5 h (in vitro [7]): 95%; remaining at 2 h (in vitro [7]): 93.7%; remaining at 0.5 h (in vitro [8]): 37.7%; remaining at 2 h (in vitro [8]): 1.8%
COc1ncc(-c2ccc3c(Nc4cc(Oc5cc(F)cc(F)c5)cc(C(=O)O)c4)c(S(=O)(=O)NC4CC4)cnc3c2)c(OC)n1 [GSK2837808A, reference compound]								GI50 ([2]; MTT, 48 h): 11.3 µM
CC(=O)N1CCN(c2ccc(OCC3COC(Cn4ccnc4)(c4ccc(Cl)cc4Cl)O3)cc2)CC1 (stereo not drawn) [Ketoconazole, reference compound]								CYP2C19 isozyme activity (% of control activity) (CYP2C19): > 100 % of control activity; CYP1A2 isozyme activity (% of control activity) (CYP1A2): 99.1 % of control activity; CYP2C9 isozyme activity (% of control activity) (CYP2C9): 97.5 % of control activity
C[C@H](Cc1ccc2c(c1)OCO2)[C@@H](C)Cc1ccc2c(c1)OCO2 [Machilin A]								IC50 (LDHA): 84 µM
CCN(CC)CCOC(=O)c1ccc(N)cc1 [Procaine]								remaining at 5 min (in vitro [7]): 1.5%; remaining at 10 min (in vitro [7]): 0.4%; remaining at 0.5 h (in vitro [8]): 89.8%; remaining at 2 h (in vitro [8]): 52.6%
OCc1ccc2c(c1)OCO2 [piperonyl alcohol]								LDHA inhibitory activity (LDHA): did not exhibit an LDHA inhibitory activity
GNE140 [reference compound]								GI50 ([2]; MTT, 48 h): 11.6 µM and 11.9 µM
